# Assay results: patent US11414431B2, “Substituted pyrazolo[1,5-a]pyrimidines as TYK2 inhibitors” (Nimbus Lakshmi, Inc., priority 2018, dated 2022)
# Target: human TYK2 (JH2domain-pseudokinase) (Homo sapiens (Human), UniProt P29597)
# Experiment: TYK2 JH2 Domain Binding Assay (KINOMEscan)
# Details: 11-point 3-fold dilution, top concentration 30,000 nM, duplicate; read-out: hTYK2_JH2_Binding (Kd; nM)
# Method: Binding constants for compounds of the present invention against the JH2 domain were determined by the following protocol for a KINOMEscan® assay (DiscoveRx). A fusion protein of a partial length construct of human TYK2 (JH2domain-pseudokinase) (amino acids G556 to D888 based on reference sequence NP_003322.3) and the DNA binding domain of NFkB was expressed in transiently transfected HEK293 cells. From these HEK 293 cells, extracts were prepared in M-PER extraction buffer (Pierce) in the presence of Protease Inhibitor Cocktail Complete (Roche) and Phosphatase Inhibitor Cocktail Set II (Merck) per manufacturers' instructions. The TYK2(JH2domain-pseudokinase) fusion protein was labeled with a chimeric double-stranded DNA tag containing the NFkB binding site (5′-[…]-3′) fused to an amplicon for qPCR readout, which was added directly to the expression extract (the final concentration of DNA-tag in the binding reaction is 0.1 nM).
# The liganded beads were blocked with excess biotin and washed with blocking buffer (SeaBlock (Pierce), 1% BSA, 0.05% Tween 20, 1 mM DTT) to remove unbound ligand and to reduce nonspecific binding.
# Extracts were loaded with DNA-tag and diluted into the binding reaction in a two step process. First extracts were diluted 1:100 in 1× binding buffer (PBS/0.05% Tween 20/10 mM DTT/0.1% BSA/2 μg/ml sonicated salmon sperm DNA) containing 10 nM DNA-tag. This dilution was allowed to equilibrate at room temperature for 15 minutes and then subsequently diluted 1:100 in 1× binding buffer. […] Kds were determined using an 11-point 3-fold compound dilution series with three DMSO control points. […] The compounds were then diluted directly into the assays such that the final concentration of DMSO was 0.9%. All reactions performed in polypropylene 384-well plates. Each was a final volume of 0.02 mL. Assays were incubated with shaking for 1 hour at room temperature. Then the beads were pelleted and washed with wash buffer (lx PBS, 0.05% Tween 20) to remove displaced kinase and test compound. […] The qPCR protocol consisted of a 10 minute hot start at 95° C., followed by 35 cycles of 95° C. for 15 seconds, 60° C. for 1 minute.
# Kds were determined using an 11-point 3-fold compound dilution series with three DMSO control points. […] The compounds were then diluted directly into the assays such that the final concentration of DMSO was 0.9%. The Kds were determined using a compound top concentration of 30,000 nM. Kd measurements were performed in duplicate.
# Binding constants (Kds) were calculated with a standard dose-response curve using the Hill equation: […]
# The Hill Slope was set to −1.
# Sequence of human TYK2 (JH2domain-pseudokinase) (P29597 556-888): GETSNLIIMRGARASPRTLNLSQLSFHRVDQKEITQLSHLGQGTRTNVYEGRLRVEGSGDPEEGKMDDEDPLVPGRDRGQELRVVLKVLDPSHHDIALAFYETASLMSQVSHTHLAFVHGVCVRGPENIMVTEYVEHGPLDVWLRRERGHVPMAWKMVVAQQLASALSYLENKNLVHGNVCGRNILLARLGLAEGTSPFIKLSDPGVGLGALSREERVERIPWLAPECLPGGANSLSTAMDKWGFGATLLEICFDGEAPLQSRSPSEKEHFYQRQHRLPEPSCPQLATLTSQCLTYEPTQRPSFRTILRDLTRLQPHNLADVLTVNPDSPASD
row,SMILES,Kd [nM]
1,"CNc1cc(Nc2cccn(C3CC(F)(F)C3)c2=O)nc2c(C(=O)N[C@H]3CCC[C@](C)(O)C3)cnn12 [Compound I-93, 5-((1-(3,3-Difluorocyclobutyl)-2-oxo-1,2-dihydropyridin-3-yl)amino)-N-((1S,3S)-3-hydroxy-3-methylcyclohexyl)-7-(methylamino)pyrazolo[1,5-a]pyrimidine-3-carboxamide]",0.2 to 1
2,"CNc1cc(Nc2cccn(-c3ncco3)c2=O)nc2c(C(=O)NC3CC[C@@H](OC)C3)cnn12 (mixture of isomers) [Compound I-71, N-((trans-1,3)-3-Methoxycyclopentyl)-7-(methylamino)-5-((1-(oxazol-2-yl)-2-oxo-1,2-dihydropyridin-3-yl)amino)pyrazolo[1,5-a]pyrimidine-3-carboxamide]",0.2 to 1
3,O=C(N[C@H]1CCC1(F)F)c1cnn2c3c(c(Nc4cccn([C@H]5[C@@H]6COC[C@@H]65)c4=O)nc12)OCCN3 [Compound I-770],> 10
4,"CNc1cc(Nc2cccn(-c3ncco3)c2=O)nc2c(C(=O)N[C@H]3CC[C@H](OC)C3)cnn12 [Compound I-84, N-((1S,3S)-3-Methoxycyclopentyl)-7-(methylamino)-5-((1-(oxazol-2-yl)-2-oxo-1,2-dihydropyridin-3-yl)amino)pyrazolo[1,5-a]pyrimidine-3-carboxamide]",0.2 to 1
5,CNc1cc(-c2cnc3n([C@H]4COC[C@@H]4OC)cccc2-3)nc2c(C(=O)N[C@@H]3C[C@@H]3F)cnn12 [Compound I-823],< 0.2
6,CC(C)n1cccc(Nc2nc3c(C(=O)N[C@@H]4CCC4(F)F)cnn3c3c2OCCN3)c1=O [Compound I-767],< 0.2
7,CNc1cc(-c2cn(C3CN(C)C3)c3ncccc23)nc2c(C(=O)NC3COC[C@H]3O)cnn12 (stereo partly shown) [Compound I-714],> 10
8,"CNc1cc(Nc2cccn([C@@H]3C[C@H]3F)c2=O)nc2c(C(=O)N[C@H]3CC[C@@H](O)C3)cnn12 [Compound I-43, 5-((1-((1R,2R)-2-Fluorocyclopropyl)-2-oxo-1,2-dihydropyridin-3-yl)amino)-N-((1S,3R)-3-hydroxycyclopentyl)-7-(methylamino)pyrazolo[1,5-a]pyrimidine-3-carboxamide]",0.2 to 1
9,"CNc1cc(Nc2cccn([C@H]3CCC[C@H]3O)c2=O)nc2c(C(=O)N[C@@H]3CC[C@@H](OC)C3)cnn12 [Compound I-87, 5-((1-((1S,2R)-2-Hydroxycyclopentyl)-2-oxo-1,2-dihydropyridin-3-yl)amino)-N-((1R,3R)-3-methoxycyclopentyl)-7-(methylamino)pyrazolo[1,5-a]pyrimidine-3-carboxamide]",> 10
10,CNc1cc(-c2cn([C@H]3COC[C@@H]3OC)c3ncccc23)nc2c(C(=O)N[C@@H]3C[C@@H]3F)cnn12 [Compound I-504],< 0.2
11,"CNc1cc(Nc2cccn([C@H]3C[C@@H]3F)c2=O)nc2c(C(=O)N[C@@H]3CC[C@@H]3O)cnn12 [Compound I-13, 5-((1-((1S,2S)-2-Fluorocyclopropyl)-2-oxo-1,2-dihydropyridin-3-yl)amino)-N-((1R,2S)-2-hydroxycyclobutyl)-7-(methylamino)pyrazolo[1,5-a]pyrimidine-3-carboxamide]",0.2 to 1
12,CO[C@H]1CC[C@@H]1NC(=O)c1cnn2c3c(c(Nc4cccn([C@H]5[C@@H]6COC[C@@H]65)c4=O)nc12)OCCN3 [Compound I-764],< 0.2
13,CNc1cc(-c2cnc3n(CC(=O)N4CC5(COC5)C4)cccc2-3)nc2c(C(=O)N[C@@H]3CC[C@H]3OC)cnn12 [Compound I-1013],< 0.2
14,"CNc1cc(Nc2cccn(C(C)C)c2=O)nc2c(C(=O)N[C@@H]3C[C@H]3OC)cnn12 [Compound I-29, 5-((1-Isopropyl-2-oxo-1,2-dihydropyridin-3-yl)amino)-N-((1R,2R)-2-methoxycyclopropyl)-7-(methylamino)pyrazolo[1,5-a]pyrimidine-3-carboxamide]",0.2 to 1
15,"CNc1cc(Nc2cccn(-c3ncco3)c2=O)nc2c(C(=O)N[C@@H]3CC[C@@H](OC)C3)cnn12 [Compound I-83, N-((1R,3R)-3-Methoxycyclopentyl)-7-(methylamino)-5-((1-(oxazol-2-yl)-2-oxo-1,2-dihydropyridin-3-yl)amino)pyrazolo[1,5-a]pyrimidine-3-carboxamide]",0.2 to 1
16,"CNc1cc(-c2cn([C@H]3CCCOC3)c3ncccc23)nc2c(C(=O)N[C@H]3CC[C@H]3O)cnn12 [Compound I-15, N-((1S,2R)-2-Hydroxycyclobutyl)-7-(methylamino)-5-(1-((S)-tetrahydro-2H-pyran-3-yl)-1H-pyrrolo[2,3-b]pyridin-3-yl)pyrazolo[1,5-a]pyrimidine-3-carboxamide]",0.2 to 1
17,"CNc1cc(Nc2cccn([C@@H]3CCC[C@@H]3O)c2=O)nc2c(C(=O)N[C@@H]3CC[C@@H](OC)C3)cnn12 [Compound I-78, 5-((1-((1R,2S)-2-Hydroxycyclopentyl)-2-oxo-1,2-dihydropyridin-3-yl)amino)-N-((1R,3R)-3-methoxycyclopentyl)-7-(methylamino)pyrazolo[1,5-a]pyrimidine-3-carboxamide]",0.2 to 1
18,"CNc1cc(Nc2cccn([C@H]3CC[C@@H]3O)c2=O)nc2c(C(=O)N[C@H]3CCC[C@H](OC)C3)cnn12 [Compound I-97, 5-((1-((1S,2S)-2-Hydroxycyclobutyl)-2-oxo-1,2-dihydropyridin-3-yl)amino)-N-((1S,3S)-3-methoxycyclohexyl)-7-(methylamino)pyrazolo[1,5-a]pyrimidine-3-carboxamide]",1 to 10
19,CNc1cc(-c2cn([C@@H]3COC[C@H]3O)c3ncccc23)nc2c(C(=O)NC3CC3)cnn12 [Compound I-497],< 0.2
20,"O=C(N[C@@H]1C[C@@H]1F)c1cnn2c3c(c(Nc4cccn(C5CCOCC5)c4=O)nc12)OCCN3 [Compound I-751, N-((1R,2S)-2-Fluorocyclopropyl)-5-((2-oxo-1-(tetrahydro-2H-pyran-4-yl)-1,2-dihydropyridin-3-yl)amino)-2,3-dihydro-1H-pyrazolo[5′,1′:2,3]pyrimido[5,4-b][1,4]oxazine-7-carboxamide]",< 0.2
21,CNc1cc(-c2cn(C3COC3)c3ncccc23)nc2c(C(=O)N[C@@H]3CC[C@H]3F)cnn12 [Compound I-509],< 0.2
22,"CNc1cc(Nc2cccn([C@H]3CCC[C@H]3O)c2=O)nc2c(C(=O)N[C@H]3CC[C@H](OC)C3)cnn12 [Compound I-88, 5-((1-((1S,2R)-2-Hydroxycyclopentyl)-2-oxo-1,2-dihydropyridin-3-yl)amino)-N-((1S,3S)-3-methoxycyclopentyl)-7-(methylamino)pyrazolo[1,5-a]pyrimidine-3-carboxamide]",> 10
23,CNc1cc(-c2cn([C@@H]3CCOC[C@H]3O)c3ncccc23)nc2c(C(=O)NC3CC3)cnn12 [Compound I-499],< 0.2
24,"CNc1cc(Nc2cccn([C@H]3CC[C@H]3O)c2=O)nc2c(C(=O)NC3CCC[C@@H](OC)C3)cnn12 (stereo partly drawn) [Compound I-103, 5-((1-((1S,2R)-2-Hydroxycyclobutyl)-2-oxo-1,2-dihydropyridin-3-yl)amino)-N-((trans-1,3)-3-methoxycyclohexyl)-7-(methylamino)pyrazolo[1,5-a]pyrimidine-3-carboxamide]",1 to 10
25,"CNc1cc(Nc2ccc(F)n(-c3ccccn3)c2=O)nc2c(C(=O)N[C@@H]3C[C@@H]3F)cnn12 [Compound I-474, 5-((6-Fluoro-2-oxo-2H-[1,2′-bipyridin]-3-yl)amino)-N-((1R,2S)-2-fluorocyclopropyl)-7-(methylamino)pyrazolo[1,5-a]pyrimidine-3-carboxamide]",1 to 10
